What was measured:
[1] = target: human pancreatic secreted PLA2 (hps PLA2) (Homo sapiens, UniProt P04054); conditions: reported activity data; cited from earlier work
[2] = target: porcine pancreatic secreted PLA2 (pps PLA2) (Sus scrofa, UniProt P00592); conditions: reported activity data; cited from earlier work
human PLA2 IB enzyme = human PLA2 IB enzyme (Homo sapiens, UniProt P04054); conditions: pyrene substrate release from vesicles (Singer, Ghomashchi et al. 2002); read-out: IC50 versus the human PLA2 IB enzyme; cited from earlier work
Sequence of human PLA2 IB enzyme (P04054 23-148): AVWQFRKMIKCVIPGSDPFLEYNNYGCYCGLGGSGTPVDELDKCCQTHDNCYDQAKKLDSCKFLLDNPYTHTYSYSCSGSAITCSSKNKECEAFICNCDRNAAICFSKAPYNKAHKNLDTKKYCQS

[3] = test system: wild-type C57BL/6 mice on high fat/high sucrose diet; assay: Serum cholesterol and triglycerides in mice on high fat/high sucrose diabetogenic diet (Example 5C); assay type: in vivo; conditions: 10 weeks
Method: (§1) ILY-4001 (FIG. 2) was evaluated as a PLA2 IB inhibitor in a set of experiments using wild-type mice and genetically deficient PLA2 (−/−) mice (also referred to herein as PLA2 knock-out (KO) mice). In these experiments, wild-type and PLA2 (−/−) mice were maintained on a high fat/high sucrose diet, details of which are described below.
(§2) Briefly, four groups were set up, each having six mice. Three of the groups included six wild-type PLA2 (+/+) mice in each group (eighteen mice total), and one of the groups included six genetically deficient PLA2 (−/−) mice. One of the wild-type groups was used as a wild-type control group, and was not treated with ILY-4001. The other two wild-type groups were treated with ILY-4001—one group at a lower dose (indicated as “L” in Table 1) of 25 mg/kg/day, and the other at a higher dose (indicated as “H” in Table 1) of 90 mg/kg/day. The group comprising the PLA2 (−/−) mice was used as a positive control group.
(§3) The experimental protocol used in this study was as follows. The four groups of mice, including wild type and isogenic PLA2 (−/−) C57BL/J mice were acclimated for three days on a low fat/low carbohydrate diet. After the three day acclimation phase, the animals were fasted overnight and serum samples taken to establish baseline plasma cholesterol, triglyceride, and glucose levels, along with baseline body weight. The mice in each of the treatment groups were then fed a high fat/high sucrose diabetogenic diet (Research Diets D12331). 1000 g of the high fat/high sucrose D12331 diet was composed of casein (228 g), DL-methionine (2 g), maltodextrin 10 (170 g), sucrose (175 g), soybean oil (25 g), hydrogenated coconut oil (333.5 g), mineral mix S10001 (40 g), sodium bicarbonate (10.5 g), potassium citrate (4 g), vitamin mix V10001 (10 g), and choline bitartrate (2 g). This diet was supplemented with ILY-4001 treatments such that the average daily dose of the compound ingested by a 25 g mouse was: 0 mg/kg/day (wild-type control group and PLA2 (−/−) control group); 25 mg/kg/day (low-dose wild-type treatment group), or 90 mg/kg/day (high-dose wild-type treatment group). The animals were maintained on the high fat/high sucrose diet, with the designated ILY-4001 supplementation, for a period of ten weeks.
Body weight measurements were taken for all animals in all treatment and control groups at the beginning of the treatment period and at 4 weeks and 10 weeks after initiation of the study. (See Example 5A). Blood draws were also taken at the beginning of the treatment period (baseline) and at 4 weeks and 10 weeks after initiation of the study, in order to determine fasting glucose (See Example 5B). Cholesterol and triglyceride levels were determined from blood draws taken at the beginning of the treatement (baseline) and at ten weeks. […]

Caco-2 cells = assay: Caco-2 permeability study (Example 6B); assay type: in vitro ADME, human
Method: The culture medium was refreshed every 48 hours.

mouse PLA2 IB enzyme = mouse PLA2 IB enzyme (Mus musculus, UniProt Q9Z0Y2); conditions: pyrene substrate release from vesicles (Singer, Ghomashchi et al. 2002); read-out: IC50 versus the mouse PLA2 IB enzyme; cited from earlier work
Sequence of mouse PLA2 IB enzyme (Q9Z0Y2 23-146): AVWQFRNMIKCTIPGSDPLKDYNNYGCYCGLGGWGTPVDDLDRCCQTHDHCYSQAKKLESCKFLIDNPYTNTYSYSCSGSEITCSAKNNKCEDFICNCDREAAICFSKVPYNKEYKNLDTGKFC

[4] = test system: wild-type C57BL/6 mice on high fat/high sucrose diet; assay: Fasting serum glucose in mice on high fat/high sucrose diabetogenic diet (Example 5B); assay type: in vivo; conditions: low dose 25 mg/kg/day (group 2)
Method: as §1, §2
The experimental protocol used in this study was as follows. […]
Body weight measurements were taken for all animals in all treatment and control groups at the beginning of the treatment period and at 4 weeks and 10 weeks after initiation of the study. […] Cholesterol and triglyceride levels were determined from blood draws taken at the beginning of the treatement (baseline) and at ten weeks. […]

[5] = test system: wild-type C57BL/6 mice on high fat/high sucrose diet; assay: Body weight gain in mice on high fat/high sucrose diabetogenic diet (Example 5A); assay type: in vivo; conditions: for body weight gain compared to the wild-type control group: week 4 and week 10
Method: as §1, §2, §3
Body weight measurements were taken for all animals in all treatment and control groups at the beginning of the treatment period and at 4 weeks and 10 weeks after initiation of the study. (See Example 5A). Blood draws were also taken at the beginning of the treatment period (baseline) and at 4 weeks and 10 weeks after initiation of the study, in order to determine fasting glucose (See Example 5B). Cholesterol and triglyceride levels were determined from blood draws taken at the beginning of the treatement (baseline) and at ten weeks. (See Example 5C).
In the study generally described above in Example 5, body weight measurements were taken for all animals in all treatment and control groups at the beginning of the treatment period and at 4 weeks and 10 weeks after initiation of the study.

Stability at low pH = assay type: physicochemical; conditions: predicted to survive passage through the stomach
[6] = Pharmokinetic study, bioavailability (Example 6C); assay type: in vivo, mice; conditions: ORAL 30 mg/kg
From the text: This example characterized ILY-4001 [2-(3-(2-amino-2-oxoacetyl)-1-(biphenyl-2-ylmethyl)-2-methyl-1H-indol-4-yloxy)acetic acid], alternatively referred to herein as methyl indoxam, with respect to activity, as determined by IC50 assay (Example 6A), with respect to cell absorbtion, as determined by in-vitro Caco-2 assay (Example 6B) and with respect to bioavailability, as determined using in-vivo mice studies (Example 6C).
This example evaluated the bioavailability of ILY-4001 [2-(3-(2-amino-2-oxoacetyl)-1-(biphenyl-2-ylmethyl)-2-methyl-1H-indol-4-yloxy)acetic acid], alternatively referred to herein as methyl indoxam. […]
Bioavailability was calculated as a ratio of AUC-oral/AUC-intravenous (IV). To determine this ratio, a first set of subject animals were given a measured intravenous (IV) dose of ILY-4001, followed by a determination of ILY-4001 levels in the blood at various time points after administration (e.g., 5 minutes through 24 hours). Another second set of animals was similarly dosed using oral administration, with blood levels of ILY-4001 determined at various time points after administration (e.g., 30 minutes through 24 hours). The level of ILY-4001 in systemic circulation were determined by generally accepted methods (for example as described in Evans, G., A Handbook of Bioanalysis and Drug Metabolism. Boca Raton, CRC Press (2004)). […]

[7] = high dose 90 mg/kg/day (group 3)
[8] = low dose 25 mg/kg/day (group 2)

Sequence of human pancreatic secreted PLA2 (hps PLA2) (P04054 23-148): as the sequence (P04054 23-148) above
Sequence of porcine pancreatic secreted PLA2 (pps PLA2) (P00592 23-146): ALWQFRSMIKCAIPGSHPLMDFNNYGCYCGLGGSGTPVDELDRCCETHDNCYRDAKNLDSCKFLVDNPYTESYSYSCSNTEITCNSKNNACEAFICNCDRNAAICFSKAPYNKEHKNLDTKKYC

For `Cc1c(CC(=O)NN)c2cc(OCCCC(=O)O)ccc2n1Cc1ccccc1`, the “IC50 hps PLA2” value [1] is listed as “no activity” and the “IC50 pps PLA2” value [2] is listed as “no activity”.
In the case of `Cc1c(C(=O)C(N)=O)c2c(/C=C/C(=O)O)cccc2n1Cc1ccccc1`, the IC50 [1] is listed as greater than 100 µM.
In the case of `Cc1c(C(=O)C(N)=O)c2c(OCC(=O)O)cccc2n1Cc1ccccc1-c1ccccc1` [ILY-4001, 2-(3-(2-amino-2-oxoacetyl)-1-(biphenyl-2-ylmethyl)-2-methyl-1H-indol-4-yloxy)acetic acid], the IC50 (human PLA2 IB enzyme) is listed as roughly 0.2 µM, the “plasma levels of cholesterol” value [3, 7] is listed as “substantially reduced” and the “plasma levels of triglycerides” value [3, 7] is listed as “substantially reduced”. For the same compound, the “plasma levels of cholesterol” value [3, 8] was “substantially reduced”, the “plasma levels of triglycerides” value [3, 8] was “substantially reduced” and the apparent permeability (Caco-2 cells; Caco-2 monolayers, apical to basolateral, 50 ug/ml) was “around 1.66×10^−7 cm/s”. The “absorbtion from the GI lumen” value (Caco-2 cells; based on Caco-2 assays and pharmokinetic studies) was “relatively low absorbtion”, the IC50 (mouse PLA2 IB enzyme) was roughly 0.15 µM and the fasting glucose levels ([4]; week four) was “moderately beneficial effect”. For the same compound, the fasting glucose levels ([4]; week ten) was “a beneficial effect was not observed”, the “body weight gain relative to PLA2 (−/−) mice” value ([5]; 25 mg/kg/d (low-dose) in diet, ten weeks) was “modulated to an extent comparable to that achieved in the PLA2 (−/−) mice” and the “body weight gain relative to PLA2 (−/−) mice” value ([5]; 25 mg/kg/d in diet, four weeks) was “modulated to an extent approaching that achieved in the PLA2 (−/−) mice”. The “body weight gain compared to the wild-type control group” value ([5]; 25 mg/kg/d in diet) was “significantly reduced body weight gains”, the “body weight gain relative to PLA2 (−/−) mice” value ([5]; 90 mg/kg/d in diet, four weeks) was “modulated to an extent approaching that achieved in the PLA2 (−/−) mice” and the “body weight gain compared to the wild-type control group” value ([5]; 90 mg/kg/d in diet) was “significantly reduced body weight gains”. The “stability at low pH” value (Stability at low pH) was “stable at low pH” and the “level of non-absorption from the GI tract into systemic circulation” value [6] was roughly 72%.
For Lucifer Yellow [reference compound], the “apparent permeability (paracellular transport control)” value (Caco-2 cells; Caco-2) was “around 2.82×10^−7+/−0.37×10^−7 cm/s”.
For `Cc1c(C(=O)C(N)=O)c2c(CCC(=O)O)cccc2n1Cc1ccccc1`, the IC50 [1] is listed as greater than 100 µM.

From patent US20080051447A1, “Treatment Of Hypercholesterolemia, Hypertriglyceridemia And Cardiovascular-Related Conditions Using Phospholipase-A2 Inhibitors” (priority 2005, published 2008)
